Reference: patent US20110171663A1, “MICROTRENCH AND TUMOUR PROLIFERATION ASSAY” (University College Cardiff Consultants Ltd, priority 2008, published 2011)

Tested on: U-2 OS (ATCC HTB-96) human osteosarcoma cell line
Test: Timelapse imaging determination of sequential intermitotic times (IMT1, IMT2) in cell lineages
Format: cell-based
Conditions: U-2 OS lineages from progenitors exposed to 10 μM topotecan for 1 h
Experimental: Human osteosarcoma cell line (U-2 OS (ATCC HTB-96)23) derived from a person were used. The cells were maintained at 37° C. and 5% CO2 using standard tissue culture techniques. Media used was McCoys 5A modified (Sigma) supplemented with 2 mM glutamine, 100 units/ml penicillin, 100 μg/ml streptomycin and 10% fetal calf serum. The cells were seeded onto tissue culture plastic, PDMS layer with and without PDMS microtrench arrays and placed in a six-well multi-well dish (10^4 cells per ml) and left to establish for 24 hours. Post-24 hours incubation the culture dish was then immediately placed onto a timelapse imaging instrument designed to capture transmission phase images from multi-well plates. An Axiovert 100 microscope (Carl Zeiss, Welwyn Garden City, UK) was fitted with an incubator for 37° C./5% CO2 maintenance (Solent Scientific, Portsmouth, UK), and an ORCA-ER CCD camera (Hamamatsu, Reading, UK). All images were collected with a x10 (PH1) apochromat objective lens providing a full view of each microtrench format. Sequences were captured sampling at 15 min, and for three fields per treatment regime (using AQM, Kinetic Imaging, Nottingham, UK). MetaMorph software (Molecular Devices, California) was used to view the stacked image in sequence as for each experiment the images were stacked and saved as *.stk format. […]

**Q.** With `CC[C@@]1(O)C(=O)OCc2c1cc1n(c2=O)Cc2cc3c(CN(C)C)c(O)ccc3nc2-1` [topotecan] as the compound, how does the “IMT2 (av ± sd)” value (time between the division generating daughters and the division generating granddaughters) read?
**A.** 22.9 ± 5.5

**Q.** And the “IMT1 (av ± sd)” value (time between the division generating the mother cell and the division generating two daughters)?
**A.** 24 ± 4.4
